Reference: the supplement of paper PMC11451515

Tested on: SEM cells
Assay: cell viability relative to DMSO control; higher = less cytotoxic
Conditions: 48 h
Method in brief: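 Library compounds in DMSO were pin-dosed in an 11-point threefold series (47 μM to 0.79 nM) onto leukemia cells in 1536-well plates (5 μl). Plates held 500 cells/well of NOMO1 or SEM or 1000 cells/well of P12-Ichikawa, each adapted for at least four passages in each medium. Luminescence was read with CellTiter-Glo One after 48 h at 37°C. Viability means the per-plate percentage relative to DMSO wells, using cell-free wells as background.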

[1] = HPLM + 10% dialyzed FBS, 0.000781 µM
[2] = HPLM + 10% dialyzed FBS, 0.00234 µM
[3] = HPLM + 10% dialyzed FBS, 0.00702 µM
[4] = HPLM + 10% dialyzed FBS, 0.0211 µM
[5] = HPLM + 10% dialyzed FBS, 0.0632 µM
[6] = HPLM + 10% dialyzed FBS, 0.19 µM
[7] = HPLM + 10% dialyzed FBS, 0.569 µM
[8] = HPLM + 10% dialyzed FBS, 1.71 µM
[9] = HPLM + 10% dialyzed FBS, 5.12 µM
[10] = HPLM + 10% dialyzed FBS, 15.4 µM
[11] = HPLM + 10% dialyzed FBS, 46.1 µM
[12] = RPMI 5 mM glucose + 10% FBS, 0.000781 µM
[13] = RPMI 5 mM glucose + 10% FBS, 0.00234 µM
[14] = RPMI 5 mM glucose + 10% FBS, 0.00702 µM
[15] = RPMI 5 mM glucose + 10% FBS, 0.0211 µM
[16] = RPMI 5 mM glucose + 10% FBS, 0.0632 µM
[17] = RPMI 5 mM glucose + 10% FBS, 0.19 µM
[18] = RPMI 5 mM glucose + 10% FBS, 0.569 µM
[19] = RPMI 5 mM glucose + 10% FBS, 1.71 µM
[20] = RPMI 5 mM glucose + 10% FBS, 5.12 µM
[21] = RPMI 5 mM glucose + 10% FBS, 15.4 µM
[22] = RPMI 5 mM glucose + 10% FBS, 46.1 µM
[23] = RPMI 5 mM glucose + 10% dialyzed FBS, 0.000781 µM
[24] = RPMI 5 mM glucose + 10% dialyzed FBS, 0.00234 µM
[25] = RPMI 5 mM glucose + 10% dialyzed FBS, 0.00702 µM
[26] = RPMI 5 mM glucose + 10% dialyzed FBS, 0.0211 µM
[27] = RPMI 5 mM glucose + 10% dialyzed FBS, 0.0632 µM
[28] = RPMI 5 mM glucose + 10% dialyzed FBS, 0.19 µM
[29] = RPMI 5 mM glucose + 10% dialyzed FBS, 0.569 µM
[30] = RPMI 5 mM glucose + 10% dialyzed FBS, 1.71 µM
[31] = RPMI 5 mM glucose + 10% dialyzed FBS, 5.12 µM
[32] = RPMI 5 mM glucose + 10% dialyzed FBS, 15.4 µM
[33] = RPMI 5 mM glucose + 10% dialyzed FBS, 46.1 µM

SMILES	cell viability [1] [%]	cell viability [2] [%]	cell viability [3] [%]	cell viability [4] [%]	cell viability [5] [%]	cell viability [6] [%]	cell viability [7] [%]	cell viability [8] [%]	cell viability [9] [%]	cell viability [10] [%]	cell viability [11] [%]	cell viability [12] [%]	cell viability [13] [%]	cell viability [14] [%]	cell viability [15] [%]	cell viability [16] [%]	cell viability [17] [%]	cell viability [18] [%]	cell viability [19] [%]	cell viability [20] [%]	cell viability [21] [%]	cell viability [22] [%]	cell viability [23] [%]	cell viability [24] [%]	cell viability [25] [%]	cell viability [26] [%]	cell viability [27] [%]	cell viability [28] [%]	cell viability [29] [%]	cell viability [30] [%]	cell viability [31] [%]	cell viability [32] [%]	cell viability [33] [%]
C=C(C)[C@H]1Cc2c(ccc3c2O[C@@H]2COc4cc(OC)c(OC)cc4[C@@H]2C3=O)O1	96	85.9	103	85.1	75.5	92.8	104	94.5	57.1	22.6	14.2	79.7	94.7	89.6	108	60.1	89	87.8	80.2	40.3	15.8	10	101	106	125	106	77	109	91.4	86.7	40.4	23.1	13.3
Cn1c(CNc2ccc(C(=N)N)cc2)nc2cc(C(=O)N(CCC(=O)O)c3ccccn3)ccc21	87.6	96.3	95.2	106	101	103	102	117	104	121	116	73.1	99.2	98.6	97.6	102	96.6	99.6	93.2	95.6	110	103	65.6	98	95.8	114	110	104	97.7	122	120	118	119
O=C1c2c(O)ccc(O)c2C(=O)c2c(NCCNCCO)ccc(NCCNCCO)c21	77.4	81	88.6	105	95	96.5	5.15	14.7	4.46	3.34	3.77	88.3	99.7	127	116	97.5	79.1	5.41	10.6	4.48	2.93	3.79	90	89	96.4	95.7	97.9	99	4.03	15.7	4.3	2.61	3.1
Nc1nc(N)c2nc(CNc3ccc(C(=O)NC(CCC(=O)O)C(=O)O)cc3)cnc2n1 (centres undefined)	104	114	110	127	57.2	36.6	39.5	45.6	48.6	41.8	46.5	111	115	120	110	92.2	56.5	83	76.4	99.7	86.5	87.5	96.2	103	104	104	30.5	23.7	23.1	23.1	28.8	29.6	23.8
C/C=C(/C)C(=O)O[C@H]1C(C)=C[C@]23C(=O)[C@@H](C=C(CO)[C@@H](O)[C@]12O)[C@H]1[C@@H](C[C@H]3C)C1(C)C	93.9	121	87.5	90	92.4	82.1	72	92.5	87.7	70.3	54.9	120	114	101	102	100	71.9	66.9	79.9	82.6	72.7	43.8	115	135	101	107	113	93.7	104	100	91.5	82.4	42.6
CC(N)C12CC3CC(CC(C3)C1)C2 (centres undefined)	89.3	104	96.8	110	98.4	107	118	108	85.3	96.1	108	102	100	120	122	113	117	118	123	94.5	125	131	106	91.5	126	98.2	115	115	117	118	88.1	107	110
CC(C)C(=O)Nc1ccc([N+](=O)[O-])c(C(F)(F)F)c1	103	112	118	129	122	136	131	134	138	130	130	118	115	119	136	124	140	135	128	123	116	121	125	119	133	144	127	146	142	157	146	139	122
C#C[C@]1(O)CC[C@H]2[C@@H]3CCc4cc(O)ccc4[C@H]3CC[C@@]21C	86.5	103	99.6	96.6	92.2	99.4	103	98.9	105	68	47.1	92.3	116	115	113	105	107	111	104	99.8	62.9	48.7	93.7	111	108	108	108	98.2	95.1	114	100	68.8	57.6
